Laboratory results published in the NIST ThermoML archive (doi:10.1016/j.tca.2015.06.017).

Test: xn = mol fraction of the nth substance listed
Settings: Liquid, Vibrating tube method

CC(C)(C)Cl [2-chloro-2-methylpropane] + CCCCCCC
mass density [kg/m3]
Settings | 313.15 K | 323.15 K
100 kPa, x2 = 0.0554 | – | 794.33
100 kPa, x2 = 0.1017 | – | 785.21
100 kPa, x2 = 0.2004 | – | 766.79
100 kPa, x2 = 0.3016 | – | 749.26
100 kPa, x2 = 0.4097 | – | 731.93
100 kPa, x2 = 0.498 | – | 718.79
100 kPa, x2 = 0.5983 | – | 704.9
100 kPa, x2 = 0.7017 | – | 691.67
100 kPa, x2 = 0.7995 | – | 680.04
100 kPa, x2 = 0.9032 | – | 668.52
100 kPa, x2 = 0.9482 | – | 663.72
2000 kPa, x2 = 0.0554 | – | 797.48
2000 kPa, x2 = 0.1017 | – | 788.27
2000 kPa, x2 = 0.2004 | – | 769.77
2000 kPa, x2 = 0.3016 | – | 752.1
2000 kPa, x2 = 0.4097 | – | 734.59
2000 kPa, x2 = 0.498 | – | 721.4
2000 kPa, x2 = 0.5983 | – | 707.53
2000 kPa, x2 = 0.7017 | – | 694.11
2000 kPa, x2 = 0.7995 | – | 682.44
2000 kPa, x2 = 0.9032 | – | 670.78
2000 kPa, x2 = 0.9482 | – | 665.93
5000 kPa, x2 = 0.0554 | – | 802.32
5000 kPa, x2 = 0.1017 | – | 793.03
5000 kPa, x2 = 0.2004 | – | 774.28
5000 kPa, x2 = 0.3016 | – | 756.52
5000 kPa, x2 = 0.4097 | – | 738.91
5000 kPa, x2 = 0.498 | – | 725.49
5000 kPa, x2 = 0.5983 | – | 711.44
5000 kPa, x2 = 0.7017 | – | 697.95
5000 kPa, x2 = 0.7995 | – | 686.17
5000 kPa, x2 = 0.9032 | – | 674.4
5000 kPa, x2 = 0.9482 | – | 669.52
7000 kPa, x2 = 0.0554 | – | 805.4
7000 kPa, x2 = 0.1017 | – | 796.06
7000 kPa, x2 = 0.2004 | – | 777.25
7000 kPa, x2 = 0.3016 | – | 759.21
7000 kPa, x2 = 0.4097 | – | 741.54
7000 kPa, x2 = 0.498 | – | 728.22
7000 kPa, x2 = 0.5983 | – | 714.07
7000 kPa, x2 = 0.7017 | – | 700.51
7000 kPa, x2 = 0.7995 | – | 688.53
7000 kPa, x2 = 0.9032 | – | 676.71
7000 kPa, x2 = 0.9482 | – | 671.83
10000 kPa, x2 = 0.0554 | – | 809.88
10000 kPa, x2 = 0.1017 | – | 800.36
10000 kPa, x2 = 0.2004 | – | 781.49
10000 kPa, x2 = 0.3016 | – | 763.36
10000 kPa, x2 = 0.4097 | – | 745.37
10000 kPa, x2 = 0.498 | – | 731.85
10000 kPa, x2 = 0.5983 | – | 717.55
10000 kPa, x2 = 0.7017 | – | 703.96
10000 kPa, x2 = 0.7995 | – | 691.76
10000 kPa, x2 = 0.9032 | – | 679.93
10000 kPa, x2 = 0.9482 | – | 674.96
20000 kPa, x2 = 0.0554 | – | 823.12
20000 kPa, x2 = 0.1017 | – | 813.35
20000 kPa, x2 = 0.2004 | – | 794.06
20000 kPa, x2 = 0.3016 | – | 775.49
20000 kPa, x2 = 0.4097 | – | 757.06
20000 kPa, x2 = 0.498 | 751.92 | 743.41
20000 kPa, x2 = 0.5983 | 737.01 | 728.54
20000 kPa, x2 = 0.7017 | 722.7 | 714.57
20000 kPa, x2 = 0.7995 | 709.98 | 702.11
20000 kPa, x2 = 0.9032 | 697.53 | 689.93
20000 kPa, x2 = 0.9482 | 692.28 | 684.86
30000 kPa, x2 = 0.0554 | 844.1 | 834.6
30000 kPa, x2 = 0.1017 | 834.2 | 824.82
30000 kPa, x2 = 0.2004 | 814.01 | 805.07
30000 kPa, x2 = 0.3016 | 794.87 | 786.11
30000 kPa, x2 = 0.4097 | 775.79 | 767.3
30000 kPa, x2 = 0.498 | 761.41 | 753.1
30000 kPa, x2 = 0.5983 | 746.13 | 738.15
30000 kPa, x2 = 0.7017 | 731.52 | 723.78
30000 kPa, x2 = 0.7995 | 718.59 | 711.07
30000 kPa, x2 = 0.9032 | 705.89 | 698.64
30000 kPa, x2 = 0.9482 | 700.51 | 693.47
40000 kPa, x2 = 0.0554 | 854.03 | 844.99
40000 kPa, x2 = 0.1017 | 843.96 | 835.05
40000 kPa, x2 = 0.2004 | 823.46 | 814.92
40000 kPa, x2 = 0.3016 | 804.15 | 795.67
40000 kPa, x2 = 0.4097 | 784.83 | 776.64
40000 kPa, x2 = 0.498 | 770.02 | 762.18
40000 kPa, x2 = 0.5983 | 754.48 | 746.92
40000 kPa, x2 = 0.7017 | 739.67 | 732.28
40000 kPa, x2 = 0.7995 | 726.54 | 719.25
40000 kPa, x2 = 0.9032 | 713.51 | 706.58
40000 kPa, x2 = 0.9482 | 708.05 | 701.31
50000 kPa, x2 = 0.0554 | 862.97 | 854.39
50000 kPa, x2 = 0.1017 | 852.84 | 844.39
50000 kPa, x2 = 0.2004 | 832.15 | 823.81
50000 kPa, x2 = 0.3016 | 812.43 | 804.37
50000 kPa, x2 = 0.4097 | 792.76 | 785.03
50000 kPa, x2 = 0.498 | 777.91 | 770.31
50000 kPa, x2 = 0.5983 | 762.19 | 754.82
50000 kPa, x2 = 0.7017 | 747.09 | 739.94
50000 kPa, x2 = 0.7995 | 733.8 | 726.85
50000 kPa, x2 = 0.9032 | 720.62 | 713.88
50000 kPa, x2 = 0.9482 | 715.12 | 708.52
60000 kPa, x2 = 0.0554 | 871.31 | 863.07
60000 kPa, x2 = 0.1017 | 861.07 | 852.83
60000 kPa, x2 = 0.2004 | 840.18 | 832.16
60000 kPa, x2 = 0.3016 | 820.2 | 812.47
60000 kPa, x2 = 0.4097 | 800.35 | 792.82
60000 kPa, x2 = 0.498 | 785.26 | 778.02
60000 kPa, x2 = 0.5983 | 769.28 | 762.27
60000 kPa, x2 = 0.7017 | 753.92 | 747.09
60000 kPa, x2 = 0.7995 | 740.45 | 733.8
60000 kPa, x2 = 0.9032 | 727.14 | 720.67
60000 kPa, x2 = 0.9482 | 721.6 | 715.25
65000 kPa, x2 = 0.0554 | 875.25 | 867.24
65000 kPa, x2 = 0.1017 | 864.95 | 856.84
65000 kPa, x2 = 0.2004 | 843.84 | 836.1
65000 kPa, x2 = 0.3016 | 823.81 | 816.3
65000 kPa, x2 = 0.4097 | 803.85 | 796.58
65000 kPa, x2 = 0.498 | 788.68 | 781.6
65000 kPa, x2 = 0.5983 | 772.62 | 765.81
65000 kPa, x2 = 0.7017 | 757.22 | 750.52
65000 kPa, x2 = 0.7995 | 743.57 | 737.12
65000 kPa, x2 = 0.9032 | 730.17 | 723.9
65000 kPa, x2 = 0.9482 | 724.57 | 718.48
